# Data published in patent publication US11191765B2, “Heterocyclic compounds for the inhibition of PASK” (BioEnergenix LLC, priority 2012, dated 2021).
# Key:
# PASK (Invitrogen) = PASK (Invitrogen) (Homo sapiens (Human), UniProt Q96RG2); test: PAS Kinase FRET Assay; assay type: biochemical; conditions: TR-FRET (665 nm/615 nm), Ulight-peptide substrate, 2 hours at 25° C.; read-out: IC50 Kinase Domain
# From the text: The aim of the FRET assay is to determine the inhibition potential of test compounds on targeted kinase. This assay platform provides a homogenous screening method for measuring kinase activity by quantitating the amount of phospho-substrate in solution following a kinase reaction.
# In the presence of kinase and ATP, the Ulight-peptide is phosphorylated and captured by an anti-phospho-substrate antibody, which brings the Eu chelate donor and Ulight acceptor dyes into close proximity. Upon excitation at 340 nm, the Eu chelate transfers its energy to the Ulight dye, resulting in a fluorescent light emission at 665 nm.
# Titration of kinase at 1 mM ATP was achieved via the following protocol. After making serial three-fold dilutions of PASK (Invitrogen) in reaction buffer across the plate; 5 μl of kinase dilution and 5 μl substrate/ATP mix were added to the wells of the white Optiplate-384 (PerkinElmer). The contents of the plate were and incubated at RT for 1 h. The reaction was stopped by adding 5 μl of stop solution to each test well followed by mixing and incubation at RT for 10 minutes. 5 μl of detection mix (detection antibody diluted in detection buffer) was added; the contents of the plate were mixed and then incubated in the dark for 1 hour at RT. The signal was recorded at TR-FRET mode (665 nm/615 nm). The results were graphed to calculate the EC50.
# Titration of ATP at the EC50 concentration of kinase to determine ATP Km,app. was performed using the following method. After making serial dilutions of ATP (Invitrogen), 5 μl of ATP dilution and 5 μl substrate/kinase mix were added to the wells of the white Optiplate-384 (PerkinElmer). The contents of the plate were and incubated at RT for 1 h. The reaction was stopped by adding 5 μl of stop solution to each test well followed by mixing and incubation at RT for 10 minutes. 5 μl of detection mix (detection antibody diluted in detection buffer) was added; the contents of the plate were mixed and then incubated in the dark for 1 hour at RT. The signal was recorded at TR-FRET mode (665 nm/615 nm). The results were graphed to calculate the EC50 as the ATP Km,app.
# Compound screening was done via the following method. 10 mM stock solution of test compound in DMSO was prepared by dissolving test compound in DMSO at RT for 1 hour, and then sonicating at 100% output for 8 minutes. If compound is not soluble under this condition, it was diluted to 3 mM. Kinase reaction buffer was prepared containing 10 mM MgCl2, 50 mM HEPES, 1 mM EGTA, 0.01% TWEEN-20, 2 mM DTT. Serial dilutions of the test compounds were prepared at 4×final assay concentrations using Freedom EVO200® dispensing system as follows: 12×10^−5 M, 4×10^−5 M, 1.33×10^−5 M, 4.44×10^−6 M, 1.48×10^−6 M, 4.92×10^−7 M, 1.65×10^−7 M, 5.48×10^−7 M, 1.82×10^−8 M, 6.09×10^−9, 2.03×10^−9 M. Test compounds (2.5 μl at 4×the final assay concentration) was added to wells using Freedom EVO200® dispensing system. As a positive control, 2.5 μl of positive compound was added to assay wells, and 2.5 μl of DMSO to assay wells as vehicle control. Kinase solution was prepared in reaction buffer at 2×final assay concentration. Kinase solution (5 μl) was added to each well of the assay plate. The substrate and ATP solution was prepared in kinase reaction buffer at 4×final assay concentration. The kinase reaction was started by adding 2.5 μl of substrate+ATP mix solution to each well of the assay plate. The plate is mixed on a plate shaker; then covered and allowed to react for 2 hours in the dark at 25° C. without shaking. The reaction was stopped by adding 5 μl of stop solution to each test well followed by mixing and incubation at RT for 10 minutes in the dark. 5 μl of detection mix (detection antibody diluted in detection buffer) was added; the contents of the plate were mixed and then incubated in the dark for 1 hour at RT. The signal was recorded at TR-FRET mode (665 nm/615 nm).
# PASK = PASK (UniProt #Q96RG2; human recombinant N-terminal GST tagged construct, residues 879-1323) (Homo sapiens (Human), UniProt Q96RG2); test: PASK ATP Radiochemical Assay; assay type: biochemical; conditions: radiochemical 33P-ATP assay, Myelin Basic Protein substrate, 120 min at room temperature; read-out: IC50 Kinase Domain
# PASK, sequence (Q96RG2 879-1323, change not shown): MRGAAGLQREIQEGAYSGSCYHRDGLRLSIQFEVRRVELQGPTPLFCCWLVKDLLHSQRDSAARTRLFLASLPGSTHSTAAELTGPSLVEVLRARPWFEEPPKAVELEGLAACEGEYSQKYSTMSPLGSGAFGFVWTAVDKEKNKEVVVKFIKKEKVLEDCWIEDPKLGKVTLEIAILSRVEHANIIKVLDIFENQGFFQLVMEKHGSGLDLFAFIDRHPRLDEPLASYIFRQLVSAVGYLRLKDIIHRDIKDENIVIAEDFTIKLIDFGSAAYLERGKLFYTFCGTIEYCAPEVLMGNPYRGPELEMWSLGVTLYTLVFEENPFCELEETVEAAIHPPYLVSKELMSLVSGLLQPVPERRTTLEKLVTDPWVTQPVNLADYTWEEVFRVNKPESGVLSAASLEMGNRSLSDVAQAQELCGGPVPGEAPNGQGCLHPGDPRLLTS
# Protocol: Biochemical Assay for hPASK Activity
# PASK ATP Radiochemical Assay
# Purified PASK (UniProt #Q96RG2; human recombinant N-terminal GST tagged construct, residues 879-1323) from insect cells (final concentration 5 nM) is added to freshly prepared Base Reaction Buffer containing 20 mM HEPES (pH 7.5), 10 mM MgCl2, 1 mM EGTA, 0.02% Brij35, 0.02 mg/ml BSA, 0.1 mM Na3VO4, 2 mM DTT, 1% DMSO and Myelin Basic Protein (20 μM final). Test compounds in DMSO are then added and the mixture, followed by delivery of ^33P-ATP (specific activity 0.01 μCi/μl final) to initiate the reaction. The kinase reaction is incubated for 120 min at room temperature. The entire reaction mixture is washed through onto a P81 Phosphocellulose paper and washed three times for 10 minutes in 75 mM phosphoric acid and once in methanol prior to drying and scintillation counting.
# PASK (Invitrogen), sequence (Q96RG2 999-1251): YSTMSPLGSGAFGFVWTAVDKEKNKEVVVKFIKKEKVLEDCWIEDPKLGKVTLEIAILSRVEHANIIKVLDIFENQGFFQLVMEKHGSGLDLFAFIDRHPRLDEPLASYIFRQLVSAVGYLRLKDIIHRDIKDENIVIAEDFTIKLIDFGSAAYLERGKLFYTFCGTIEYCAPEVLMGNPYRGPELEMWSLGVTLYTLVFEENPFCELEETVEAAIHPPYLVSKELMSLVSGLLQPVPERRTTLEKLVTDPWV
SMILES,IC50 (PASK (Invitrogen)),IC50 (PASK)
"COc1cc(-c2cc(=O)n3nc(-c4ccc(Cl)cc4)nc3[nH]2)ccc1Cl [Example 8, 5-(4-Chloro-3-methoxyphenyl)-2-(4-chlorophenyl)-[1,2,4]triazolo[1,5-a]pyrimidin-7(4H)-one]",≤ 10 µM,≤ 10 µM
"O=c1cc(-c2ccc3c(c2)OCO3)[nH]c2nc(-c3ccc(Cl)cc3)nn12 [Example 15, 5-(Benzo[d][1,3]dioxol-5-yl)-2-(4-chlorophenyl)-[1,2,4]triazolo[1,5-a]pyrimidin-7(4H)-one]",≤ 10 µM,≤ 10 µM
"COc1ccccc1-c1cc(=O)n2nc(-c3ccccc3)nc2[nH]1 [Example 30, 5-(2-Methoxyphenyl)-2-phenyl-[1,2,4]triazolo[1,5-a]pyrimidin-7(4H)-one]",–,≤ 10 µM
"COc1ccc(-c2nc3[nH]c(-c4ccccc4)cc(=O)n3n2)cc1 [Example 35, 2-(4-Methoxyphenyl)-5-phenyl-[1,2,4]triazolo[1,5-a]pyrimidin-7(4H)-one]",–,≤ 10 µM
"COc1ccc(-c2cc(=O)n3ncnc3[nH]2)cc1 [Example 38, 5-(4-Methoxyphenyl)-[1,2,4]triazolo[1,5-a]pyrimidin-7(4H)-one]",–,≤ 10 µM
"O=c1cc(-c2ccc3[nH]ncc3c2)[nH]c2nc(-c3ccc(Cl)cc3)nn12 [Example 44, 2-(4-Chlorophenyl)-5-(1H-indazol-5-yl)-[1,2,4]triazolo[1,5-a]pyrimidin-7(4H)-one]",≤ 10 µM,–

# More lines, now with the values ahead:
IC50 (PASK (Invitrogen)),IC50 (PASK),SMILES
–,≤ 10 µM,"O=c1cc(-c2ccccc2)[nH]c2nc(-c3ccccc3)nn12 [Example 31, 2,5-Diphenyl-[1,2,4]triazolo[1,5-a]pyrimidin-7(4H)-one]"
–,≤ 10 µM,"COc1ccc(-c2cc(=O)n3nc(-c4ccccc4)nc3[nH]2)cc1 [Example 32, 5-(4-Methoxyphenyl)-2-phenyl-[1,2,4]triazolo[1,5-a]pyrimidin-7(4H)-one]"
–,≤ 10 µM,"COc1cccc(-c2cc(=O)n3nc(-c4ccccc4)nc3[nH]2)c1 [Example 33, 5-(3-Methoxyphenyl)-2-phenyl-[1,2,4]triazolo[1,5-a]pyrimidin-7(4H)-one]"
≤ 10 µM,≤ 10 µM,"COc1ccc(-c2cc(=O)n3nc(-c4ccc(Cl)cc4)nc3[nH]2)cc1 [Example 34, 2-(4-Chlorophenyl)-5-(4-methoxyphenyl)-[1,2,4]triazolo[1,5-a]pyrimidin-7(4H)-one]"
–,≤ 10 µM,"O=c1cc(-c2ccccc2)[nH]c2nc(-c3ccccc3Cl)nn12 [Example 36, 2-(2-Chlorophenyl)-5-phenyl-[1,2,4]triazolo[1,5-a]pyrimidin-7(4H)-one]"
–,≤ 10 µM,"COc1ccc(-c2cc(=O)n3ncnc3[nH]2)cc1OC [Example 37, 5-(3,4-Dimethoxyphenyl)-[1,2,4]triazolo[1,5-a]pyrimidin-7(4H)-one]"
≤ 10 µM,–,"O=c1cc(-c2ccc3[nH]nnc3c2)[nH]c2nc(Cc3ccccc3)nn12 [Example 45, 5-(1H-Benzo[d][1,2,3]triazol-5-yl)-2-benzyl-[1,2,4]triazolo[1,5-a]pyrimidin-7(4H)-one]"
